Test results reported in ChEMBL document CHEMBL1151142, “Triterpenoids and Flavonoids from Hyptis albida” (J Nat Prod, 1990).

What follows are compounds tested on Artemia (assay: Toxicity against brine shrimp). Conditions: in vivo.
Assay type: organism-based
For `CC1(C)CC[C@@]23CC[C@]4(C)[C@@](CC[C@@H]5[C@@]6(C)CC[C@H](O)C(C)(C)[C@@H]6CC[C@]54C)(OC2=O)[C@@H]3C1`, the LC50 was greater than 700 ppm.
Work on `CC1(C)CC[C@@]23CC[C@]4(C)[C@@](OC2=O)([C@@H]3C1)[C@H]1O[C@H]1[C@@H]1[C@@]2(C)CC[C@H](O)C(C)(C)[C@@H]2CC[C@]14C` yielded an LC50 greater than 700 ppm.
`CC1(C)CC[C@@]23CC[C@]4(C)[C@@](C=C[C@@H]5[C@@]6(C)CC[C@H](O)C(C)(C)[C@@H]6CC[C@]54C)(OC2=O)[C@@H]3C1` was tested, and the LC50 was greater than 700 ppm.
Compound `COc1ccc(-c2oc3cc(OC)cc(O)c3c(=O)c2OC)cc1` has an LC50 greater than 700 ppm.
With `CC(=O)O[C@H]1CC[C@]2(C)[C@H]3CC=C4[C@@H]5CC(C)(C)CC[C@]5(C(=O)O)CC[C@@]4(C)[C@]3(C)CC[C@H]2C1(C)C` [ACETYL OLEANOLIC ACID] the LC50 was greater than 700 ppm.
`COc1ccc(-c2cc(=O)c3c(O)cc(OC)cc3o2)cc1` [APIGENIN DIMETHYLETHER] showed an LC50 greater than 700 ppm.
In the case of `C=C(C)[C@@H]1CC[C@]2(C(=O)O)CC[C@]3(C)[C@H](CC[C@@H]4[C@@]5(C)CC[C@H](O)C(C)(C)[C@@H]5CC[C@]43C)[C@@H]12` [BETULINIC ACID], the LC50 is reported as greater than 700 ppm.
Work on `COc1ccc(-c2oc3cc(O)cc(O)c3c(=O)c2OC)cc1` [ERMANIN] yielded an LC50 greater than 700 ppm.
`COc1ccc(-c2cc(=O)c3c(O)c(OC)c(OC)c(OC)c3o2)cc1` [GARDENIN B] was tested, and the LC50 was greater than 700 ppm.
Compound `COc1ccc(-c2cc(=O)c3c(O)c(OC)c(O)c(OC)c3o2)cc1` [NEVADENSIN] has an LC50 greater than 700 ppm.
`CC1(C)CC[C@]2(C(=O)O)CC[C@]3(C)C(=CC[C@@H]4[C@@]5(C)CC[C@H](O)C(C)(C)[C@@H]5CC[C@]43C)[C@@H]2C1` [OLEANOLIC_ACID] showed an LC50 greater than 700 ppm.
In the case of `C[C@H]1[C@H](C)CC[C@]2(C(=O)O)CC[C@]3(C)C(=CC[C@@H]4[C@@]5(C)CC[C@H](O)C(C)(C)[C@@H]5CC[C@]43C)[C@H]12` [URSOLIC ACID], the LC50 is reported as greater than 700 ppm.
